Data set [1] can be described thus: Binding of metal complexes to particulate carrier (1H NMR relaxation of supernatant). The note with it: to silica; 0.4ml 50mM metal complex, pH 7.5, 3 minutes.
Description: (§1) The particulates used were generally used as suspensions in distilled water for these studies (250mg/ml). The solid from 1ml of particulate solution was isolated by centrifugation and the supernatant removed. 0.4ml of a 50mM metal complex solution at pH = 7.5 was added and the solid resuspended. […] After 3 minutes the solid was isolated by centrifugation washed once by resuspension in distilled water (0.4ml) followed by recentrifugation to isolate the products. The initial supernatant was analysed by ¹H NMR relaxation measurements at 200MHz and the amount of metal complex bound to the particulate calculated. The particulates were resuspended at 10 mg/ml and the T1 and T2 relaxation times measured at 10MHz and 37°C.
Experiment in data set [2]: as above
To be noted: to magnesium hydroxide; 0.4ml 50mM metal complex, pH 7.5, 3 minutes.
Description: as §1

Experiment in data set [3]: as above
To be noted: to aluminium hydroxide; 0.4ml 50mM metal complex, pH 7.5, 3 minutes.
Description: (§2) The particulates used were generally used as suspensions in distilled water for these studies (250mg/ml). The solid from 1ml of particulate solution was isolated by centrifugation and the supernatant removed. 0.4ml of a 50mM metal complex solution at pH = 7.5 was added and the solid resuspended. […] After 3 minutes the solid was isolated by centrifugation washed once by resuspension in distilled water (0.4ml) followed by recentrifugation to isolate the products. The initial supernatant was analysed by ¹H NMR relaxation measurements at 200MHz and the amount of metal complex bound to the particulate calculated.

Experiment in data set [4]: as above
The note with it: to calcium phosphate neutral; 0.4ml 50mM metal complex, pH 7.5, 3 minutes.
Description: as §2

Experiment in data set [5]: as above
To be noted: to calcium pyrophosphate; 0.4ml 50mM metal complex, pH 7.5, 3 minutes.
Description: as §1

Experiment in data set [6]: as above
To be noted: to magnesium trisilicate; 0.4ml 50mM metal complex, pH 7.5, 3 minutes.
Description: as §1

Experiment in data set [7]: as above
To be noted: to calcium hydroxide; 0.4ml 50mM metal complex, pH 7.5, 3 minutes.
Description: as §2

Experiment in data set [8]: as above
To be noted: to calcium phosphate basic; 0.4ml 50mM metal complex, pH 7.5, 3 minutes.
Description: as §2

Experiment in data set [9]: as above
To be noted: to aluminium phosphate; 0.4ml 50mM metal complex, pH 7.5, 3 minutes.
Description: as §2

Experiment in data set [10]: as above
To be noted: to sodium phosphate glass; 0.4ml 50mM metal complex, pH 7.5, 3 minutes.
Description: as §1

Data set [11] in a line: Stability of 153Gd labelled adducts in acid solution. The note with it: 5ml 0.2M HCl, 24hrs, percentage of the original activity. In kind it is physicochemical. The method, then:
The stability of the adducts in acid solution was assayed using ¹⁵³Gd labelled adducts. The adducts were prepared as in the binding assays described previously. 5ml of 0.2M HCl was then added to the adduct which was resuspended and left for 24hrs. The suspensions were then filtered through a glass sinter and washed with 5ml distilled water. The total filtrate was then placed into an ion chamber and the total activity measured.

A short description of data set [12]: Binding of 153Gd labelled gadolinium complexes, radioactive assay. The note with it: total activity of the filtrate as percentage of the original; 12.5mM Gd, 25mM phosphonate where present. The method, then: The binding of gadolinium complexes was also assayed using ¹⁵³Gd labelled solutions. The particulates were used as suspensions (250mg/ml) and isolated by centrifugation. 0.4ml of a radioactively labelled gadolinium complex was then added and the solid resuspended. After three minutes the solid was filtered through a glass sinter and washed with water (≃10ml). The total activity of the filtrate was measured and expressed as a percentage of the original. The gadolinium concentration of the complex in this assay was 12.5mM and the concentration of phosphonate (where present) was 25mM. A further assay involved the addition of 25mM, and 37.5mM Gd with concomitant increase in the phosphonate concentration.

Data set [13] can be described thus: Binding of metal complexes to particulate carrier (1H NMR relaxation of supernatant). To be noted: to calcium phosphate ortho; 0.4ml 50mM metal complex, pH 7.5, 3 minutes.
Description: The solid from 1ml of particulate solution was isolated by centrifugation and the supernatant removed. 0.4ml of a 50mM metal complex solution at pH = 7.5 was added and the solid resuspended. […] After 3 minutes the solid was isolated by centrifugation washed once by resuspension in distilled water (0.4ml) followed by recentrifugation to isolate the products. The initial supernatant was analysed by ¹H NMR relaxation measurements at 200MHz and the amount of metal complex bound to the particulate calculated.

Consider `[Cl][Fe]([Cl])[Cl]` [FeCl₃], for which the “% Bound” value in data set [1] turned out to be 46%; in [2], 96%; in data set [3], 89%; in data set [4] it was 92%; in data set [5], 50%; in [6] it was 93%. Moreover, the “% Bound” value in data set [7] is recorded as 98%; in data set [8], 96%; in [9] it was 78%; in data set [10], 41%.
With `[Cl][Gd]([Cl])[Cl]` [GdCl₃], the “% Bound” value is listed as 66% in data set [1]; 99% in [2]; 98% in [3]; 98% in data set [4]; 68% in data set [5]; 89% in data set [6]. Also, the “% Bound” value is 99% in [7], 99% in data set [8] and 48% in data set [10]. Also, the “PERCENTAGE ACTIVITY IN SUPERNATANT” value in data set [11] (adduct with Ca₂P₂O₇) is recorded as 0.41%; in data set [11] (adduct with Ca₃(PO₄)₂) it was 0.54%. Besides, the “BINDING TO CaPO₄ - RADIOACTIVE ASSAY” value in data set [12] was 2.07%. In [12], the “BINDING TO CaPYROPHOSPHATE - RADIOACTIVE ASSAY” value was determined as 0.14%.
With ferric citrate, the “% Bound” value in data set [1] was 16%; in [2], 89%; in [3], 80%; in data set [13], 82%; in data set [4], 68%; in data set [5] it was 28%. For the same compound, the “% Bound” value in [6] is 50%; in [7], 74%; in [8], 80%; in data set [9] it was 18%; in data set [10], 26%.
